The test system of data set [1] is HEK293T cells. The experiment in a line: Cytotoxicity assay (resazurin, 3 days), HEK293T. Format: cell-based, human. The settings on record: CC50 (HEK293T)/IC50 (T. brucei). Here is the method:
(§1) HEK293T and HepG2 cells were cultured at 37 °C with 5% CO2 in Dulbecco’s modified eagle medium containing 10% FBS. Both cell lines were plated individually in 384 well plates (4000 cells per well) and the natural compounds (two fold 10 points serial dilution starting from 5 ppm) were added for 3 days of incubation.
Background: Resazurin is reduced to fluorescent resorufin, in cell work by metabolically active cells.

Data set [2] in a line: Cytotoxicity assay (resazurin, 3 days), HEK293T. The data set is classed as cell-based, human. The settings on record: human. Here is the method:
as §1

Data set [3] can be described thus: Cytotoxicity assay (resazurin, 3 days), HepG2. The data set is classed as cell-based, human. As to conditions: human. How it is done: as §1
The test system of data set [4] is T. b. brucei strain 427 (bloodstream forms). The experiment in a line: Anti-trypanosomal activity on T. brucei (resazurin growth inhibition, 3 days). Format: cell-based, Trypanosoma brucei. From the text:
To identify inhibitors of T. brucei growth, we conducted a screening of a proprietary library consisting of 440 purified natural products isolated from medicinal plants at the CNU laboratories. […] Nevertheless, since, according to the 5th rule, natural products may also represent exceptions from the other rules, all compounds were submitted to antiparasitic screening performed at a single concentration of 5 ppm (µg/mL) of each purified natural product.
T. b. brucei strain 427 (bloodstream forms) were cultivated at 37 °C with 5% CO2 atmosphere in HMI-9 medium supplemented with 10% FBS. […] After the incubation, the parasites were exposed to 120 µM of resazurin sodium salt for 5 h. Then, the parasites were fixed with 4% PFA and the assay plates were read by Victor 3 (PerkinElmer, Waltham, MA, USA) at 530 nmEx/590 nmEm. Pentamidine was used as a reference drug and DMSO 0.5% was used as a drug-negative control.

Data set [5] relates to HepG2 cells. The experiment in a line: Cytotoxicity assay (resazurin, 3 days), HepG2. The settings on record: CC50 (HepG2)/IC50 (T. brucei). The data set is classed as cell-based, human. How it is done:
as §1

Where [6] appears, read: Trypanosoma brucei, -log IC50 [M], experimental, read-out: pIC50 Tbr(exp) (converted).
Where [7] appears, read: T. b. brucei strain 427 bloodstream forms, 3 days, mean ± SD, read-out: T. brucei IC50.
Where [8] appears, read: Trypanosoma brucei, 72 h, T. b. brucei strain 427 bloodstream forms, 3 days, mean ± SD, read-out: T. brucei IC50.

Data on 19 compounds can be found in PMC6273235, “Phenolic Constituents of Medicinal Plants with Activity against Trypanosoma brucei” (Molecules, 2016).

Like-named read-outs stand apart in the source and are kept apart here. Some results are limits rather than exact numbers.

For `CC(C)=CCc1cc(C(=O)/C=C/c2ccc(O)c(O)c2)c(O)cc1O` [Compound 4, broussochalcone A], the “s.i (selectivity index) HEK239T” value in data set [1] is above 13.28. For the same compound, the CC50 at 3 days is above 28.8 µM in data set [2] and above 29.2 µM in data set [3]. Besides, the IC50 in data set [4] (setting [6]) is 2.17e-06 M.
For the compound `COc1cc(O)ccc1C(=O)/C=C/c1ccc(O)cc1` [Compound 5, 3-deoxysappanchalcone], in data set [1], the “s.i (selectivity index) HEK239T” value is reported as above 2.91. Besides, the CC50 at 3 days is above 30.2 µM in data set [2] and above 37.1 µM in data set [3]. Moreover, the “s.i (selectivity index) HepG2” value in data set [5] is above 3.58. Besides, the IC50 in data set [4] (setting [7]) was 1.04e-05 ± 3.36e-06 M; in data set [4] (setting [8]), above 1e-05 M; in data set [4] (setting [6]), 1.04e-05 M.
With `CC(C)=CCC/C(C)=C/Cc1c(O)ccc(C(=O)/C=C/c2ccc(O)cc2)c1O` [Compound 6, xanthoangelol], in data set [1], the “s.i (selectivity index) HEK239T” value was above 3.43. Besides, the CC50 at 3 days in data set [2] and in data set [3] was above 25.4 µM throughout. Further, the “s.i (selectivity index) HepG2” value in data set [5] is above 3.43. In addition, the values for the IC50 in data set [4] (setting [8]) and in data set [4] (setting [6]) were 7.42e-06 ± 1.12e-06 M and 7.41e-06 M, respectively.
In the case of `COc1cc(CC/C=C/C(=O)CCc2ccccc2)ccc1O` [Compound 7, 7-(4″-hydroxy-3″-methoxyphenyl)-1-phenylhept-4-en-3-one], the “s.i (selectivity index) HEK239T” value in data set [1] was above 13.05. Moreover, the half-maximal cytotoxic concentration (CC50) at 3 days in data set [2] and in data set [3] was above 32.4 µM throughout. For the same compound, in data set [5], the “s.i (selectivity index) HepG2” value is given as above 13.05. For the same compound, in data set [4] (setting [6]), the IC50 was 2.48e-06 M.
In the case of `COc1cc(C=CC=O)ccc1O` [Compound 8, 4-hydroxy-3-methoxycinnamaldehyde], the “s.i (selectivity index) HEK239T” value in data set [1] is on record as above 2.93. The CC50 at 3 days was above 48.1 µM in data set [2] and above 57 µM in data set [3]. Further, the “s.i (selectivity index) HepG2” value in data set [5] is on record as above 3.47. The IC50 in data set [4] (setting [7]) is 1.64e-05 ± 2.78e-06 M; in data set [4] (setting [8]), above 1e-05 M; in data set [4] (setting [6]), 1.64e-05 M.
Consider `C=CCc1ccc(Oc2cc(/C=C/C=O)cc(O)c2O)cc1` [Compound 9, obovatal], for which the “s.i (selectivity index) HEK239T” value in data set [1] is listed as above 3.42. The CC50 at 3 days in data set [2] and in data set [3] was above 33.8 µM each time. In addition, the “s.i (selectivity index) HepG2” value in data set [5] is above 3.42. Moreover, the IC50 in data set [4] (setting [8]) is 9.89e-06 ± 5.1e-07 M; in data set [4] (setting [6]) it was 9.89e-06 M.
Take `C=CCc1ccc(O)c(-c2ccc(O)c(CC=C)c2)c1` [Compound 10, honokiol]: the “s.i (selectivity index) HEK239T” value in data set [1] is above 4.29. Besides, the 50% cytotoxic concentration (CC50) at 3 days in data set [2] and in data set [3] was above 37.6 µM each time. For the same compound, in data set [5], the “s.i (selectivity index) HepG2” value is listed as above 4.29. Also, the IC50 was 8.76e-06 ± 3.8e-07 M in data set [4] (setting [8]) and 8.77e-06 M in data set [4] (setting [6]).
`C=C[C@H](OC(C)=O)c1ccc(OC(C)=O)cc1` [Compound 11, 1′S-1′-acetoxychavicol acetate]: the “s.i (selectivity index) HEK239T” value in data set [1] is above 4.94. Also, the half-maximal cytotoxic concentration (CC50) at 3 days in data set [2] was above 23.2 µM; in data set [3] it was above 30 µM. In addition, the “s.i (selectivity index) HepG2” value in data set [5] is listed as above 6.38. Further, the IC50 in data set [4] (setting [7]) is 4.7e-06 ± 1.53e-06 M; in data set [4] (setting [8]) it was below 5e-06 M; in data set [4] (setting [6]) it was 4.7e-06 M.
For `COc1ccc([C@H](O)[C@@H](C)Oc2ccc([C@H]3O[C@H](c4ccc5c(c4)OCO5)[C@H](C)[C@H]3C)cc2OC)cc1OC` [Compound 12, saucerneol D], the “s.i (selectivity index) HEK239T” value in data set [1] is reported as above 2.89. The CC50 at 3 days is above 16.2 µM in data set [2] and above 18.6 µM in data set [3]. Further, the “s.i (selectivity index) HepG2” value in data set [5] is recorded as above 3.32. Also, the figures for the IC50 in data set [4] (setting [8]) and in data set [4] (setting [6]) were 5.61e-06 ± 9e-08 M and 5.61e-06 M, respectively.
On to `COc1ccc([C@@H](O)[C@@H](C)Oc2ccc([C@H]3O[C@H](c4ccc(O[C@H](C)[C@H](O)c5ccc(OC)c(OC)c5)c(OC)c4)[C@H](C)[C@H]3C)cc2OC)cc1OC` [Compound 13, manassantin A], for which the CC50 at 3 days is above 11.8 µM in data set [2] (HEK293T cells, 3 days, > = highest concentration tested (5 ppm), read-out: Cytotoxicity CC50 Values HEK239T) and above 13.7 µM in data set [3] (HepG2 cells, 3 days, > = highest concentration tested (5 ppm), read-out: Cytotoxicity CC50 Values HepG2). The IC50 is 5.43e-06 ± 2.6e-07 M in data set [4] (Trypanosoma brucei, 72 h, read-out: T. brucei IC50) and 5.43e-06 M in data set [4] (Trypanosoma brucei, read-out: pIC50 Tbr(exp) (converted)).
`COc1ccc([C@@H](O)[C@@H](C)Oc2ccc([C@H]3O[C@H](c4ccc(O[C@H](C)[C@H](O)c5ccc6c(c5)OCO6)c(OC)c4)[C@H](C)[C@H]3C)cc2OC)cc1OC` [Compound 14, manassantin B]: the “s.i (selectivity index) HEK239T” value in data set [1] is above 3.12. Further, the 50% cytotoxic concentration (CC50) at 3 days in data set [2] is above 11 µM; in data set [3], above 13.9 µM. In addition, the “s.i (selectivity index) HepG2” value in data set [5] is above 3.93. The IC50 is 3.54e-06 ± 4.9e-07 M in data set [4] (setting [7]), below 5e-06 M in data set [4] (setting [8]) and 3.54e-06 M in data set [4] (setting [6]).
Consider `C=C(C)[C@H](CC=C(C)C)Cc1c(O)cc(O)c2c1O[C@H](c1ccc(O)cc1O)CC2=O` [Compound 15, kushenol F], for which, in data set [1], the “s.i (selectivity index) HEK239T” value was above 17.34. The cytotoxic concentration (CC50) at 3 days in data set [2] and in data set [3] was above 23.8 µM throughout. Besides, in data set [5], the “s.i (selectivity index) HepG2” value is given as above 17.34. Moreover, the IC50 in data set [4] (setting [6]) was 1.37e-06 M.
On to `COc1ccc(-c2cc(=O)c3c(O)c(OC)c(O)cc3o2)cc1OC` [Compound 17, eupatilin], for which the “s.i (selectivity index) HEK239T” value in data set [1] is given as above 3.58. Besides, the cytotoxic concentration (CC50) at 3 days in data set [2] and in data set [3] was above 29.1 µM each time. Further, the “s.i (selectivity index) HepG2” value in data set [5] is reported as above 3.58. Besides, the IC50 is 8.14e-06 ± 1.37e-06 M in data set [4] (setting [8]) and 8.15e-06 M in data set [4] (setting [6]).
On to `CC(C)=CCc1c(-c2ccc(O)cc2O)oc2c3c(cc(O)c2c1=O)OC(C)(C)C=C3` [Compound 18, morusin], for which the “s.i (selectivity index) HEK239T” value in data set [1] is above 6.98. Also, the CC50 at 3 days in data set [2] and in data set [3] was above 23.7 µM each time. The “s.i (selectivity index) HepG2” value in data set [5] is above 6.98. Besides, the IC50 in data set [4] (setting [7]) was 3.4e-06 ± 1.5e-07 M; in data set [4] (setting [8]), below 5e-06 M; in data set [4] (setting [6]), 3.4e-06 M.
For the compound `O=C1c2ccc(O)cc2OC[C@H]1Cc1ccc(O)c(O)c1` [Compound 19, 3-deoxysappanone B], in data set [1], the “s.i (selectivity index) HEK239T” value is on record as above 6.04. Further, the cytotoxic concentration (CC50) at 3 days in data set [2] and in data set [3] was above 35 µM in each case. For the same compound, the “s.i (selectivity index) HepG2” value in data set [5] was above 6.04. For the same compound, the results for the IC50 in data set [4] (setting [8]) and in data set [4] (setting [6]) were 5.8e-06 ± 7e-08 M and 5.79e-06 M, respectively.
As for `CC(C)=CCc1c(O)c(CC=C(C)C)c2occ(-c3ccc(O)c(O)c3)c(=O)c2c1O` [Compound 20, 6,8-diprenylorobol], the “s.i (selectivity index) HEK239T” value in data set [1] was above 46.34. Further, the cytotoxic concentration (CC50) at 3 days in data set [2] and in data set [3] was above 24.1 µM in each case. Moreover, the “s.i (selectivity index) HepG2” value in data set [5] is given as above 46.34. In data set [4] (setting [6]), the IC50 was 5.2e-07 M.
`O=c1c(-c2ccc(O)cc2)coc2cc(O[C@@H]3O[C@H](CO)[C@@H](O)[C@H](O)[C@H]3O)cc(O)c12` [Compound 21, genistin]: the “s.i (selectivity index) HEK239T” value in data set [1] is on record as above 6.99. The CC50 at 3 days in data set [2] and in data set [3] was above 23.1 µM in each case. Further, in data set [5], the “s.i (selectivity index) HepG2” value is reported as above 6.99. Also, the IC50 in data set [4] (setting [7]) is 3.31e-06 ± 7.5e-07 M; in data set [4] (setting [8]) it was below 5e-06 M; in data set [4] (setting [6]), 3.31e-06 M.
For the compound `O=c1c(-c2ccc(O[C@@H]3O[C@H](CO)[C@@H](O)[C@H](O)[C@H]3O)cc2)coc2cc(O)cc(O)c12` [Compound 22, sophoricoside], in data set [1], the “s.i (selectivity index) HEK239T” value is above 3.56. The CC50 at 3 days in data set [2] and in data set [3] was above 23.1 µM throughout. Further, the “s.i (selectivity index) HepG2” value in data set [5] was above 3.56. The IC50 is 6.5e-06 ± 5.2e-07 M in data set [4] (setting [8]) and 6.5e-06 M in data set [4] (setting [6]).
With `N=C(N)c1ccc(OCCCCCOc2ccc(C(=N)N)cc2)cc1` [Pentamidine, reference compound], the “s.i (selectivity index) HEK239T” value in data set [1] is listed as below 26.7. In addition, in data set [4] (setting [8]), the IC50 was 4e-09 ± 3e-09 M.

The term CC50 denotes the concentration giving 50% cytotoxicity.
